Measured values published in the NIST ThermoML archive (doi:10.1021/je7004374).

Tests used:
[1] = Liquid
[2] = refractive index (Na D-line) (dimensionless); conditions: 298.15 K; 101.33 kPa; Liquid; Standard Abbe refractometry

CC(O)CO (centres undefined) [1,2-propanediol]
[1]
Conditions | mass density [kg/m3]
283.16 K, 101.33 kPa | 1043.43
288.15 K, 101.33 kPa | 1039.84
293.15 K, 100 kPa | 1036.22
293.15 K, 10000 kPa | 1040.95
293.15 K, 20000 kPa | 1045.52
293.15 K, 30000 kPa | 1049.89
293.15 K, 40000 kPa | 1054.08
293.15 K, 50000 kPa | 1058.13
293.15 K, 60000 kPa | 1062.03
293.15 K, 70000 kPa | 1065.8
293.15 K, 80000 kPa | 1069.46
293.15 K, 90000 kPa | 1073.01
293.15 K, 100000 kPa | 1076.45
293.16 K, 101.33 kPa | 1036.21
298.15 K, 100 kPa | 1032.55
298.15 K, 10000 kPa | 1037.38
298.15 K, 20000 kPa | 1042.03
298.15 K, 30000 kPa | 1046.08
298.15 K, 40000 kPa | 1050.75
298.15 K, 50000 kPa | 1054.86
298.15 K, 60000 kPa | 1058.82
298.15 K, 70000 kPa | 1062.66
298.15 K, 80000 kPa | 1066.37
298.15 K, 90000 kPa | 1069.96
298.15 K, 100000 kPa | 1073.46
298.16 K, 101.33 kPa | 1032.54
303.15 K, 100 kPa | 1028.84
303.15 K, 10000 kPa | 1033.77
303.15 K, 20000 kPa | 1038.51
303.15 K, 30000 kPa | 1043.04
303.15 K, 40000 kPa | 1047.38
303.15 K, 50000 kPa | 1051.56
303.15 K, 60000 kPa | 1055.59
303.15 K, 70000 kPa | 1059.48
303.15 K, 80000 kPa | 1063.24
303.15 K, 90000 kPa | 1066.89
303.15 K, 100000 kPa | 1070.44
303.16 K, 101.33 kPa | 1028.83
308.15 K, 100 kPa | 1025.1
308.15 K, 101.33 kPa | 1025.09
308.15 K, 10000 kPa | 1030.12
308.15 K, 20000 kPa | 1034.95
308.15 K, 30000 kPa | 1039.56
308.15 K, 40000 kPa | 1043.98
308.15 K, 50000 kPa | 1048.23
308.15 K, 60000 kPa | 1052.32
308.15 K, 70000 kPa | 1056.27
308.15 K, 80000 kPa | 1060.1
308.15 K, 90000 kPa | 1063.8
308.15 K, 100000 kPa | 1067.39
313.15 K, 100 kPa | 1021.31
313.15 K, 101.33 kPa | 1021.3
313.15 K, 10000 kPa | 1026.44
313.15 K, 20000 kPa | 1031.36
313.15 K, 30000 kPa | 1036.06
313.15 K, 40000 kPa | 1040.55
313.15 K, 50000 kPa | 1044.87
313.15 K, 60000 kPa | 1049.03
313.15 K, 70000 kPa | 1053.04
313.15 K, 80000 kPa | 1056.92
313.15 K, 90000 kPa | 1060.68
313.15 K, 100000 kPa | 1064.32
318.15 K, 100 kPa | 1017.48
318.16 K, 101.33 kPa | 1017.48
323.15 K, 101.33 kPa | 1013.61
328.16 K, 101.33 kPa | 1009.71
333.15 K, 101.33 kPa | 1005.76
338.16 K, 101.33 kPa | 1001.77
343.15 K, 101.33 kPa | 997.745
348.15 K, 101.33 kPa | 993.675
353.15 K, 101.33 kPa | 989.56
358.15 K, 101.33 kPa | 985.405
363.15 K, 101.33 kPa | 981.219

[1]
Conditions | speed of sound [m/s]
292.87 K, 45590 kPa, Sing-around technique in a fixed-path interferometer | 1674.4
292.87 K, 60790 kPa, Sing-around technique in a fixed-path interferometer | 1717.8
292.87 K, 101320 kPa, Sing-around technique in a fixed-path interferometer | 1821.9
292.88 K, 15200 kPa, Sing-around technique in a fixed-path interferometer | 1578.7
292.88 K, 30390 kPa, Sing-around technique in a fixed-path interferometer | 1628.5
292.88 K, 75990 kPa, Sing-around technique in a fixed-path interferometer | 1758.5
292.88 K, 91180 kPa, Sing-around technique in a fixed-path interferometer | 1797.3
292.92 K, 100 kPa, Sing-around technique in a fixed-path interferometer | 1523.1
293.15 K, 101.33 kPa, Pulse-echo method | 1522.4
298.15 K, 101.33 kPa, Pulse-echo method | 1508.4
298.15 K, 45590 kPa, Sing-around technique in a fixed-path interferometer | 1661.6
298.15 K, 60790 kPa, Sing-around technique in a fixed-path interferometer | 1705.2
298.15 K, 75990 kPa, Sing-around technique in a fixed-path interferometer | 1746.5
298.16 K, 15200 kPa, Sing-around technique in a fixed-path interferometer | 1564.2
298.16 K, 30390 kPa, Sing-around technique in a fixed-path interferometer | 1615.1
298.16 K, 91180 kPa, Sing-around technique in a fixed-path interferometer | 1785.6
298.16 K, 101320 kPa, Sing-around technique in a fixed-path interferometer | 1810.5
298.2 K, 100 kPa, Sing-around technique in a fixed-path interferometer | 1508.3
303.13 K, 60790 kPa, Sing-around technique in a fixed-path interferometer | 1693.5
303.13 K, 101320 kPa, Sing-around technique in a fixed-path interferometer | 1799.9
303.14 K, 15200 kPa, Sing-around technique in a fixed-path interferometer | 1551
303.14 K, 30390 kPa, Sing-around technique in a fixed-path interferometer | 1602.4
303.14 K, 45590 kPa, Sing-around technique in a fixed-path interferometer | 1649.6
303.14 K, 75990 kPa, Sing-around technique in a fixed-path interferometer | 1735.4
303.14 K, 91180 kPa, Sing-around technique in a fixed-path interferometer | 1774.8
303.15 K, 101.33 kPa, Pulse-echo method | 1494.3
303.18 K, 100 kPa, Sing-around technique in a fixed-path interferometer | 1494.2
308.12 K, 60790 kPa, Sing-around technique in a fixed-path interferometer | 1682
308.12 K, 75990 kPa, Sing-around technique in a fixed-path interferometer | 1724.1
308.12 K, 91180 kPa, Sing-around technique in a fixed-path interferometer | 1764
308.12 K, 101320 kPa, Sing-around technique in a fixed-path interferometer | 1789.3
308.13 K, 15200 kPa, Sing-around technique in a fixed-path interferometer | 1537.7
308.13 K, 30390 kPa, Sing-around technique in a fixed-path interferometer | 1589.5
308.13 K, 45590 kPa, Sing-around technique in a fixed-path interferometer | 1637.6
308.15 K, 101.33 kPa, Pulse-echo method | 1480.2
308.17 K, 100 kPa, Sing-around technique in a fixed-path interferometer | 1480.1
313.15 K, 101.33 kPa, Pulse-echo method | 1466
313.31 K, 15200 kPa, Sing-around technique in a fixed-path interferometer | 1524.2
313.31 K, 30390 kPa, Sing-around technique in a fixed-path interferometer | 1576.4
313.31 K, 45590 kPa, Sing-around technique in a fixed-path interferometer | 1625
313.31 K, 60790 kPa, Sing-around technique in a fixed-path interferometer | 1669.9
313.31 K, 75990 kPa, Sing-around technique in a fixed-path interferometer | 1712.6
313.31 K, 91180 kPa, Sing-around technique in a fixed-path interferometer | 1752.8
313.31 K, 101320 kPa, Sing-around technique in a fixed-path interferometer | 1778.5
313.35 K, 100 kPa, Sing-around technique in a fixed-path interferometer | 1465.4

Conditions | refractive index
[2] | 1.431
